# From patent US8173788B2, “Peptide having ability to activate cancer-related gene” (priority 2005, dated 2012)
# Where no end group is shown, it is not given here.
# Columns and labels:
# [1] = tested on: cancer-related gene; assay: DNA chip analysis of cancer-related gene expression after treatment with the HPLC-purified peptide (Table 1); assay type: cell-based, human
# Description: (§1) In this diagnosis method, cells or tissues of interest are treated with the peptide of the present invention as in the above-mentioned diagnosis method 1; thus the same specimen as in the diagnosis method 1 can be used. However, in this diagnosis method, the reverse transcription is conducted to generate a cDNA (first-strand cDNA) pool, which is complementary to the mRNA, by using total mRNA extracted from the cells or tissues treated with the peptide as a template and using oligo-dT primer having T7 RNA polymerase promoter region as a reverse primer. Then, after the second-strand cDNA synthesis, in vitro transcription (IVT) was conducted using T7 RNA polymerase and biotinylated rNTPs at 37° C. for 14 hr to yield biotin-labeled cRNA. The amount of the cRNA is measured with a spectrophotometer to confirm that at least […] of cRNA can be yielded.
# (§2) The diagnosis method further includes processes for bringing this cRNA labeled with fluorescence dye or the like into contact with cDNA of a cancer-related gene which is immobilized on a plate for hybridization and for measuring the fluorescence intensity.
# (§3) Thus, on the basis of the expression condition of a cancer-related gene, a tendency of canceration or malignancy of cancer can be determined.
# (§4) An increase or decrease in the expression amount of a cancer-related gene is determined by comparing the expression level in a control. The cells and tissues used as the control are the same as those used in the diagnosis method 1.
# (§5) Tables 1 and 2 show examples of cancer-related genes of which expression is increased and immune system genes of which expression is increased or decreased by the treatment with the peptide (HPLC-purified peptide) derived from cell membrane surfaces of human squamous-cell carcinoma cells UTC-8 (Deposition No.: FERM BP-08611, which is deposited with International Patent Organism Depositary, National Institute of Advanced Industrial Science and Technology).
# (§6) The present inventor has verified the validity of this diagnosis method using 55000 cancer-related genes. When such a great number of cancer-related genes are used, DNA chip technology is preferably used. In the DNA chip technology, each DNA of the cancer-related genes is immobilized so as to be arrayed on a slide; the above-mentioned labeled cRNA solution is dropped into the slide; the cRNA which is not hybridized is removed by washing; and fluorescence intensity of each gene position is detected by a scanner. The results are compared with the result which is obtained by conducting the same process using the above-mentioned control solution. Thus, cancer-related genes of which expression is increased or decreased when cells or tissues are treated with the peptide of the present invention can be exhaustively analyzed.
# [2] = tested on: immune system gene; assay: DNA chip analysis of immune system gene expression after treatment with the HPLC-purified peptide (Table 2); assay type: cell-based, human
# Description: as §1, §2, §3, §4, §5, §6
sequence,measurement,setting,value
"QPQFGRRMESK [HPLC-purified peptide, peptide (HPLC-purified peptide) derived from cell membrane surfaces of human squamous-cell carcinoma cells UTC-8]",Fold Change,[1]; gene AF040963 MXD4,2.357
same,Fold Change,[1]; gene D16431 HDGF,3.596
same,Fold Change,[1]; gene D26120 splicing factor 1,2.833
same,Fold Change,"[1]; gene K03218 SRC, v-src sarcoma viral oncogene homolog",3.912
same,Fold Change,[1]; gene M13150 MAS1,2.07
same,Fold Change,[1]; gene M32977 VEGF,2.457
same,Fold Change,[1]; gene M60119 HIVEP2,2.205
same,Fold Change,[1]; gene M62829 EGR1,2.105
same,Fold Change,[1]; gene M83221 RELB,2.351
same,Fold Change,[1]; gene M95712 BRAF,3.034
same,Fold Change,[1]; gene NM_000753 PDE3B,2.741
same,Fold Change,[1]; gene NM_001201 BMP3,3.736
same,Fold Change,[1]; gene NM_001402 EEF1A1,2.405
same,Fold Change,[1]; gene NM_001419 ELAVL1,2.95
same,Fold Change,[1]; gene NM_001511 CXCL1,2.477
same,Fold Change,[1]; gene NM_001570 IRAK2,2.24
same,Fold Change,[1]; gene NM_001665 ARHG,2.111
same,Fold Change,[1]; gene NM_002357 MAD,2.397
same,Fold Change,[1]; gene NM_002613 PDPK1,2.866
same,Fold Change,[1]; gene NM_002712 PPP1R7,2.697
same,Fold Change,[1]; gene NM_003017 SFRS3,2.742
same,Fold Change,[1]; gene NM_003685 KHSRP,2.04
same,Fold Change,[1]; gene NM_004204 PIGQ,2.756
same,Fold Change,"[1]; gene NM_004218 RAB11B, member RAS oncogene family",2.102
same,Fold Change,[1]; gene NM_004723 ARHGEF2,2.209
same,Fold Change,[1]; gene NM_004906 WTAP,2.544
same,Fold Change,[1]; gene NM_005207 CRKL,2.497
same,Fold Change,[1]; gene NM_005524 HES1,2.395
same,Fold Change,"[1]; gene NM_005730 CTDSP2, conserved gene amplified in osteosarcoma",2.387
same,Fold Change,[1]; gene NM_005850 SF3B4,3.023
same,Fold Change,[1]; gene NM_005937 MLLT6,2.996
same,Fold Change,[1]; gene NM_006191 PA2G4,2.002
same,Fold Change,[1]; gene NM_006318 putative glialblastoma cell differentiation-related,2.098
same,Fold Change,[1]; gene NM_006694 JTB,2.019
same,Fold Change,"[1]; gene NM_006716 ASK, activator of S phase kinase",2.23
same,Fold Change,"[1]; gene NM_006842 splicing factor 3b, subunit 2, 145 kDa",2.245
same,Fold Change,[1]; gene NM_007040 E1B-AP5,2.433
same,Fold Change,[1]; gene NM_007279 U2AF2,2.494
same,Fold Change,[1]; gene NM_012103 AUP1,2.46
same,Fold Change,[1]; gene NM_014308 P101-PI3K,2.849
same,Fold Change,[1]; gene NM_015714 G0S2,2.481
same,Fold Change,[1]; gene NM_016263 FZR1,2.466
same,Fold Change,[1]; gene U33819 MAZ,2.093
same,Fold Change,[1]; gene X03663 CSF1R,2.781
same,Fold Change,[1]; gene X54936 PGF,3.576
same,Fold Change,[1]; gene X61498 NFKB2,2.833
same,Fold Change,[1]; gene X78710 MTF1,2.001
same,TDP,[2]; enhanced gene D10202 platelet-activating factor receptor,1.506
same,TDP,[2]; enhanced gene J04130 chemokine (C-C motif) ligand 4,7.341
same,TDP,"[2]; enhanced gene K02770 interleukin 1, beta",11.69
same,TDP,"[2]; enhanced gene NM_000173 glycoprotein Ib (platelet), alpha polypeptide",1.529
same,TDP,"[2]; enhanced gene NM_000211 integrin, beta 2",3.326
same,TDP,"[2]; enhanced gene NM_001733 complement component 1, r subcomponent",1.543
same,TDP,"[2]; enhanced gene NM_002000 Fc fragment of IgA, receptor for",1.871
same,TDP,[2]; enhanced gene NM_002969 mitogen-activated protein kinase 12,1.53
same,TDP,[2]; enhanced gene NM_002983 chemokine (C-C motif) ligand 3,1.542
same,TDP,[2]; enhanced gene NM_003199 transcription factor 4,1.621
same,TDP,"[2]; enhanced gene NM_006186 nuclear receptor subfamily 4, group A, member 2",2.06
same,TDP,[2]; enhanced gene X03663 colony stimulating factor 1 receptor,2.781
same,TDP,"[2]; suppressed gene K01171 major histocompatibility complex, class II, DR alpha",0.319
same,TDP,"[2]; suppressed gene NM_000397 cytochrome b-245, beta polypeptide",0.631
same,TDP,[2]; suppressed gene NM_001311 cysteine-rich protein 1 (intestinal),0.561
same,TDP,[2]; suppressed gene NM_001776 ectonucleoside triphosphate diphosphohydrolase 1,0.646
same,TDP,[2]; suppressed gene NM_001783 CD79A antigen,0.4
same,TDP,"[2]; suppressed gene NM_002118 major histocompatibility complex, class II, DM beta",0.335
same,TDP,"[2]; suppressed gene NM_002121 major histocompatibility complex, class II, DP beta 1",0.633
same,TDP,"[2]; suppressed gene NM_002123 major histocompatibility complex, class II, DQ beta 1",0.328
same,TDP,"[2]; suppressed gene NM_002124 major histocompatibility complex, class II, DR beta 1",0.502
same,TDP,"[2]; suppressed gene NM_002258 killer cell lectin-like receptor subfamily B, member 1",0.653
same,TDP,"[2]; suppressed gene NM_002260 killer cell lectin-like receptor subfamily C, member 2",0.603
same,TDP,"[2]; suppressed gene NM_003891 protein Z, vitamin K-dependent plasma glycoprotein",0.618
same,TDP,"[2]; suppressed gene NM_004106 Fc fragment of IgE, high affinity I, receptor for, gamma polypeptide",0.382
same,TDP,"[2]; suppressed gene NM_004133 hepatocyte nuclear factor 4, gamma",0.635
same,TDP,[2]; suppressed gene NM_004528 microsomal glutathione S-transferase 3,0.561
same,TDP,"[2]; suppressed gene NM_004636 sema domain, (semaphorin) 3B",0.459
same,TDP,[2]; suppressed gene NM_004750 cytokine receptor-like factor 1,0.626
same,TDP,[2]; suppressed gene NM_005545 immunoglobulin superfamily containing leucine-rich repeat,0.579
same,TDP,"[2]; suppressed gene NM_006120 major histocompatibility complex, class II, DM alpha",0.298
same,TDP,"[2]; suppressed gene NM_006864 leukocyte immunoglobulin-like receptor, subfamily B, member 3",0.662
same,TDP,[2]; suppressed gene NM_007052 NADPH oxidase 1,0.662
same,TDP,[2]; suppressed gene NM_014442 sialic acid binding Ig-like lectin 8,0.641
same,TDP,"[2]; suppressed gene NM_016523 killer cell lectin-like receptor subfamily F, member 1",0.644
same,TDP,"[2]; suppressed gene NM_018661 defensin, beta 103",0.528
same,TDP,[2]; suppressed gene U77604 microsomal glutathione S-transferase 2,0.349
same,TDP,"[2]; suppressed gene Y00815 protein tyrosine phosphatase, receptor type, F",0.475
